What was measured:
Format in all cases: cell-based, mouse
[1] = test system: α7 integrin (LacZ reporter in α7βgal+/− myoblasts); experiment: Myoblast α7+/LacZ integrin FDG assay (Burkin assay in myoblasts, 96-well); conditions: α7+/LacZ myoblasts, 96-well
[2] = test system: α7 integrin (LacZ reporter in α7+/LacZ myotubes); experiment: Myotube α7 integrin FDG assay (Burkin assay in myotubes, 96-well); conditions: myotubes
[3] = test system: β-galactosidase in CMV-LacZ C2C12 myoblasts; experiment: CMV-LacZ secondary screen in C2C12 myoblasts (β-Gal stabilizing assay); conditions: CMV-LacZ C2C12 myoblasts
How it was run: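 CMV-LacZ C2C12 line (clonal, FDG-screened); myoblasts/myotubes dosed 0.5–40 μM (0.5, 1, 5, 10, 20, 40 μM); n=2 per point; β-gal stabilization read-out.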

[4] = test system: β-galactosidase in CMV-LacZ C2C12 myotubes; experiment: CMV-LacZ secondary screen in C2C12 myotubes (β-Gal stabilizing assay); conditions: C2C12 CMV-LacZ myotubes, fold relative to DMSO
How it was run: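 Dose-response runs at 0.5–40 μM (0.5, 1, 5, 10, 20, 40 μM; N=2 per point) used a clonal C2C12 line carrying CMV-LacZ. Cells were assayed as myoblasts or as differentiated myotubes, and β-galactosidase levels were read with the FDG fluorogenic substrate.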

| SMILES | Burkin Assay in Myoblasts, signal relative to DMSO ([1]; 0.5 uM) | Burkin Assay in Myoblasts, signal relative to DMSO ([1]; 1 uM) | Burkin Assay in Myoblasts, signal relative to DMSO ([1]; 5 uM) | Burkin Assay in Myoblasts, signal relative to DMSO ([1]; 10 uM) | Burkin Assay in Myoblasts, signal relative to DMSO ([1]; 20 uM) | Burkin Assay in Myoblasts, signal relative to DMSO ([1]; 40 uM) | Burkin Assay in Myotubes, α7 integrin LacZ reporter signal relative to DMSO ([2]; 0.5 uM) | Burkin Assay in Myotubes, α7 integrin LacZ reporter signal relative to DMSO ([2]; 1 uM) | Burkin Assay in Myotubes, α7 integrin LacZ reporter signal relative to DMSO ([2]; 5 uM) | Burkin Assay in Myotubes, α7 integrin LacZ reporter signal relative to DMSO ([2]; 10 uM) | Burkin Assay in Myotubes, α7 integrin LacZ reporter signal relative to DMSO ([2]; 20 uM) | Burkin Assay in Myotubes, α7 integrin LacZ reporter signal relative to DMSO ([2]; 40 uM) | CMV-LACZ in Myoblasts (β-galactosidase activity relative to DMSO) ([3]; 0.5 uM) | CMV-LACZ in Myoblasts (β-galactosidase activity relative to DMSO) ([3]; 1 uM) | CMV-LACZ in Myoblasts (β-galactosidase activity relative to DMSO) ([3]; 5 uM) | CMV-LACZ in Myoblasts (β-galactosidase activity relative to DMSO) ([3]; 10 uM) | CMV-LACZ in Myoblasts (β-galactosidase activity relative to DMSO) ([3]; 20 uM) | CMV-LACZ in Myoblasts (β-galactosidase activity relative to DMSO) ([3]; 40 uM) | CMV-LACZ in Myotubes, signal relative to DMSO ([4]; 0.5 uM) | CMV-LACZ in Myotubes, signal relative to DMSO ([4]; 1 uM) | other results |
| --- | --- | --- | --- | --- | --- | --- | --- | --- | --- | --- | --- | --- | --- | --- | --- | --- | --- | --- | --- | --- | --- |
| Cc1nc(Nc2ccccc2F)c2oc3ccccc3c2n1 [MLS001215123-01] | 1.075 | 0.9708 | 1.1241 | 1.155 | 0.665 | 0.5252 | 0.9466 | 0.901 | 1.049 | 1.137 | 0.6938 | 0.816 | 1.0530 | 0.8837 | 1.0888 | 1.1943 | 1.2639 | 1.0098 | 1.1657 | 1.1457 | CMV-LACZ in Myotubes, signal relative to DMSO ([4]; 5 uM): 1.1153; CMV-LACZ in Myotubes, signal relative to DMSO ([4]; 10 uM): 1.2929; CMV-LACZ in Myotubes, signal relative to DMSO ([4]; 20 uM): 1.0710; CMV-LACZ in Myotubes, signal relative to DMSO ([4]; 40 uM): 1.1030 |
| COC(=O)c1cc(S(=O)(=O)NCC2CCN(Cc3ccc(Cl)cc3)CC2)cn1C [MLS001095033-01] | 1.281 | 1.186 | 0.9632 | 0.9614 | 1.125 | 1.0618 | 0.9959 | 0.9488 | 0.944 | 0.9298 | 0.8938 | 0.9158 | 0.9488 | 0.9179 | 0.9043 | 1.0269 | 0.9359 | 0.9811 | 1.2895 | 1.0867 | CMV-LACZ in Myotubes, signal relative to DMSO ([4]; 5 uM): 1.0230; CMV-LACZ in Myotubes, signal relative to DMSO ([4]; 10 uM): 1.0031; CMV-LACZ in Myotubes, signal relative to DMSO ([4]; 20 uM): 1.0326; CMV-LACZ in Myotubes, signal relative to DMSO ([4]; 40 uM): 1.0358 |
| CC(O)CNc1nc2c(c(=O)n(Cc3ccc(Br)cc3)c(=O)n2C)n1C (stereo not drawn) [MLS001212319-01] | 1.05 | 1.026 | 0.9412 | 0.8826 | 0.8529 | 0.782 | 1.134 | 1.139 | 0.9476 | 0.9201 | 0.7396 | 0.631 | 0.9129 | 1.2040 | 1.0840 | 0.8600 | 1.2056 | 1.0259 | 1.1524 | 0.8152 | CMV-LACZ in Myotubes, signal relative to DMSO ([4]; 5 uM): 0.9525; CMV-LACZ in Myotubes, signal relative to DMSO ([4]; 10 uM): 0.9253; CMV-LACZ in Myotubes, signal relative to DMSO ([4]; 20 uM): 0.9965; CMV-LACZ in Myotubes, signal relative to DMSO ([4]; 40 uM): 1.0706 |
| O=c1[nH]c(SCc2ccc(Cl)cc2)nc2ccsc12 [MLS000755214-01] | 1.077 | 1.021 | 0.9757 | 0.9635 | 0.8448 | 0.861 | 1.01 | 0.9661 | 0.9321 | 1.0353 | 0.9655 | 0.8312 | 1.0190 | 1.1650 | 0.9281 | 1.0994 | 1.0835 | 0.8172 | 0.9543 | 0.8600 | CMV-LACZ in Myotubes, signal relative to DMSO ([4]; 5 uM): 1.0763; CMV-LACZ in Myotubes, signal relative to DMSO ([4]; 10 uM): 1.0591; CMV-LACZ in Myotubes, signal relative to DMSO ([4]; 20 uM): 0.9280; CMV-LACZ in Myotubes, signal relative to DMSO ([4]; 40 uM): 1.0190 |
| CCOc1ccc(Br)cc1S(=O)(=O)Nc1ccc(C(=O)Nc2ccccc2OC)cc1 [MLS000418650-01] | 0.9156 | 1.069 | 1.13 | 0.9633 | 0.9104 | 0.9445 | 1.086 | 1.004 | 1.032 | 0.9654 | 0.7581 | 0.7593 | 0.9237 | 0.9533 | 1.0080 | 0.8344 | 1.1523 | 1.1323 | 1.0086 | 1.2819 | CMV-LACZ in Myotubes, signal relative to DMSO ([4]; 5 uM): 1.0198; CMV-LACZ in Myotubes, signal relative to DMSO ([4]; 10 uM): 1.1746; CMV-LACZ in Myotubes, signal relative to DMSO ([4]; 20 uM): 1.1180; CMV-LACZ in Myotubes, signal relative to DMSO ([4]; 40 uM): 1.2260 |

Source: US9980943B2, “Methods of treating muscular dystrophy” (BOARD OF REGENTS OF THE NEVADA SYSTEM OF HIGHER EDUCATION, …, priority 2013, dated 2018)
